Assays:
Assay type in all cases: in vivo
[1] = system: tobacco budworm (Heliothis virescens); test: Activity against tobacco budworm (TBW), sprayed diet cups with eggs
Description: (§1) In conducting evaluations of insecticidal activity, each test compound was formulated as a 400 ppm solution, and this solution was then diluted with water to give lesser concentrations. The 400 ppm solution was prepared by combining 19.2 mL of .05% solution of Tween 20 (polyoxyethylene (20) sorbitan monolaurate) in water with a solution of 8 mg of the compound in .8 mL of acetone/EtOH (9/1).
Activity against tobacco budworm (Heliothis virescens) was evaluated as follows. A general purpose lepidoptera artificial diet was diluted to half strength with a 5% non nutritive agar. 8 mL of this diet material was dispensed into each one ounce diet cup. One hour prior to treatment 18 to 20 eggs were dispensed onto the diet surface. The cups were then sprayed with formulated material through a flat-fan nozzle. […] Treated cups were air dried prior to sealing with plastic caps. The cups were held for 6 days at room temperature. Activity was then rated based on the total number of live and dead larvae, and on the size of live larvae.

[2] = system: two spotted spider mite (Tetranychus urticae); test: Activity against two spotted spider mite (TSSM), sprayed infested squash plants; details: RATE 400 (ppm), three days after treatment; for % MORTALITY: 4320 min
Description: as §1
Activity against cotton aphid (Aphis gossypii) and two spotted spider mite (Tetranychus urticae) was evaluated as follows. Golden crookneck squash plants were grown to the expanded cotyledon stage (about 6 to 8 days). The plants were infested with cotton aphids and two spotted spider mites 16 to 24 hours before application of the test material by transfer of infested foliage cut from a stock colony. Immediately prior to spray application of the test material the transfer foliage is removed from the squash plants. The test is run using concentrations of 400 ppm and 50 ppm. The plants are sprayed with test solution using an atomizing sprayer at 17 psi. Both surfaces of the leaves are covered until runoff, and then allowed to dry. Activity of each compound was determined three days after treatment. Activity was rated as a percent based on the mites/aphids present in plants sprayed with solvent alone.

[3] = system: Stomoxys calcitrans (stable fly); test: Adult stable fly test, serum-saturated dental wick; details: 10 ppm in bovine serum, readings at 24 and 48 hours, which one is reported is not stated
Description: (§2) The compound to be evaluated was dissolved in 1 part acetone/1 part ethanol to provide a stock solution of the compound at a concentration of 5,000 ppm; this solution was shaken for 15 minutes on a sonicator. Portions of the stock solution were placed in 15 ml test tubes, and portions of bovine serum were added to provide the desired dilution of the test compound. A dental wick was placed in each test tube and the serum allowed to saturate the wick.
For the adult stable fly test, the saturated wick was placed on a filter paper in a petri dish, and approximately 10 chilled live, hungry stable flies were placed on the center of the dish bottom. The dish was covered and allowed to incubate at 27°C and 60% relative humidity for 48 hours. Mortality readings were made at each of 24 and 48 hours, and adjusted for any mortality in the vehicle control to determine percent efficacy against adult stable fly.

[4] = system: Phormia regina (blow fly); test: Blow fly larvae test, serum-saturated dental wick; details: 24 and 48 hours, which one is reported is not stated; for Percentage of LBF killed at 100 ppm: 100 ppm in bovine serum
Description: as §2
For the blow fly test, approximately 20 blow fly larvae were placed onto the top center of the saturated dental wick, and the test tube was plugged with cotton and incubated at 27°C and 70% humidity for 24 and 48 hours. Larval mortality counts were then made, and adjusted for any mortality in the vehicle control, to determine percent efficacy against blow fly.

[5] = system: peanut root knot nematode (Meloidogyne arenaria); test: Activity against peanut root knot nematode, sprayed sand with cucumber seeds; details: NEMA, RATE 400 (ppm), 10 to 12 days
Description: as §1
Activity against peanut root knot nematode (Meloidogyne arenaria) was evaluated as follows. Five untreated cucumber seeds are placed into the bottom of a clear one ounce cup, 20 g of clean white sand is added, and the cups were sprayed while rotating on a pedestal allowing 1.0 mL of a 400 ppm solution to be deposited on the sand. To each cup was dispensed 2.5 to 3.0 mL of deionized water containing 300 to 500 nematodes. The cups were held for 10 to 12 days in an environmental growth chamber at a temperature of 76 to 85°F and ambient humidity of 50 to 60%. After 10 to 12 days the cups were evaluated by inverting the cup and observing nematode mortality and feeding damage to the cucumber plants.

[6] = system: beet armyworm (Spodoptera exiqua); test: Activity against beet armyworm (BAW), sprayed diet cups with eggs
Description: as §1
Activity against beet armyworm (Spodoptera exiqua) was evaluated as follows. The test is run using concentrations of 400 ppm and 50 ppm. A general purpose lepidoptera artificial diet was diluted to half strength with a 5% non nutritive agar. 8 mL of this diet material was dispensed into one ounce diet cups. One hour prior to treatment, 35 to 40 eggs were dispensed onto the diet surface. The cups were then sprayed with formulated material through a flat-fan nozzle. Treated cups were air dried prior to sealing with plastic caps. The cups were held for 6 days at room temperature. Activity was then rated based on the total number of live and dead larvae, and on the size of live larvae.

Row | Compound | % MORTALITY ([1]; RATE 400 (ppm), 6 days) | % MORTALITY [2] | Percentage of ASF killed at 10 ppm [3] | Percentage of LBF killed at 100 ppm [4] | also measured
1 | CCC1CCCC(OC2CCC(N(C)C)C(C)O2)C(C)C(=O)C2=CC3C4CC(OC5OC(C)C(OC)C(OC)C5OC)CC4[C@H]4O[C@H]4C3C2CC(=O)O1 (stereo partly drawn) [Example F7a, (5S,6R)-5,6-Epoxy Spinosyn A] | 100% | 90% | 100% | – | Percentage of LBF killed at 10 ppm ([4]; 10 ppm in bovine serum): 90%
2 | CC[C@H]1CCC[C@H](O[C@H]2CC[C@H](N(C)C)[C@@H](C)O2)[C@@H](C)C(=O)C2=C[C@H]3[C@@H]4C[C@H](O[C@@H]5O[C@@H](C)[C@H](OC)[C@@H](OC)[C@H]5OC)C[C@H]4CC[C@H]3[C@@H]2CC(=O)O1 [Example F6, 5,6-Dihydro Spinosyn A] | – | – | 100% | 100% | % MORTALITY ([1]; RATE 64 (unit not given), 8640 min): 100%; mortality at 400 µg/mL ([2]; Tetranychus urticae, 72 h): 100%
3 | CCC1CCCC(O)C(C)C(=O)C2=CC3C4CC(OC5OC(C)C(OC)C(OC)C5OC)CC4C4OC4C3C2CC(=O)O1 [Example E3, (5S,6R)-5,6-Epoxy Spinosyn A 17-Psa] | – | – | – | – | % MORTALITY [5]: 100%
4 | (5R,6R)-5,6-dibromo-4''-keto Spinosyn A [Example F11a] | – | – | – | – | % MORTALITY ([6]; RATE 56 (unit not given)): 80%
5 | 5,6-Dihydro Spinosyn A 17-Psa [Example F20] | – | – | – | – | % MORTALITY ([6]; RATE 400 (ppm), 6 days): 100%
6 | CCC1CCCC(OC2CCC(N(C)C)C(C)O2)C(C)C(=O)C2=CC3C4CC(OC5OC(C)C(OC)C(OC)C5OC)CC4[C@]4(C)O[C@@H]4C3C2CC(=O)O1 (stereo partly drawn) [Example F8b, (5R,6S)-Epoxy Spinosyn D] | 100% | 90% | 100% | 100% | –

— patent EP0837870B1, “SYNTHETIC MODIFICATION TO SPINOSYN COMPOUNDS” (Dow AgroSciences LLC, priority 1995, dated 1997)
